We go through five molecules from patent publication US9808439B2 (Macau University of Science and Technology, priority 2015, dated 2017).

Where two headings read alike, the source gives them in different places.

The test system of experiment [1] is A549/T cells. As to the kind of experiment: SRB cell cytotoxicity assay in A549/T. Type of experiment: cell-based, human. To be noted: for IC50: Homo sapiens.
In experiment [2] the test system is A2780/T cells. Kind of experiment: SRB cell cytotoxicity assay in A2780/T. To be noted: for fold reversal / IC50: A2780/T; for IC50: read-out: IC50 ± SD.
Experimental: Sulphorhodamine B (SRB) assays were carried out as previously described to assess cell density, based on sensitive measure of total cellular protein, which performed similarly compared with other proliferation assays such as MTT assay. Briefly, cells were seeded into flat bottomed 96-well plates at an initial density of 7.5×10^3 per well before treatment. […] After removing the medium, cells were fixed in 10% trichloroacetic acid for 1 h at 4° C. and then washed with water five times. 0.4% SRB dissolved in 1% v/v acetic acid was added and incubated 30 mm for staining. The cells were quickly washed with 1% acetic acid and left to dry overnight. The protein bound SRB was solubilized by adding 200 μl 10 mM Tris buffer per well and measured at wavelengths 490 nm using a plate reader (Spectra MAX 250; Molecular Devices, Sunnyvale, Calif.).
The subject of experiment [3] is A2780/T cells. Kind of experiment: Combination index, Chou-Talalay method (CalcuSyn). Type of experiment: cell-based, human. On the procedure: Combination index (CI) was calculated to quantitatively depict synergistic ([…], additive (CI=1), or antagonistic (CI>1) effect. With the use of CalcuSyn software v. 2.1 (Bio-soft), synergy is further refined as synergism (combination index=0.3-0.7), strong synergism (combination index=0.1-0.3), and very strong synergism (combination index<0.1).

Experiment [4] has as its system A2780 cells. Kind of experiment: Cell cycle analysis by flow cytometry in A2780. Type of experiment: cell-based, human. Conditions: A2780, PTX 0.01 μM. On the procedure: (§1) A2780/T cells were harvested after 24-hours, 48-hour, or 72-hour treatment and washed twice with ice-cold PBS. The cells were fixed and permeabilized with 70% ice-cold ethanol overnight at 4° C. or −20° C. for 2 h. After one additional wash in PBS, cells were stained with a staining solution containing PI ([…]) and RNase A (250 μg/ml) for […] at room temperature. They were then pelleted, washed and suspended in PBS to a final concentration of 1×10^6/ml and analyzed by flow cytometry (BD FACS Aria, BD Biosciences, San Jose, Calif.).
For orientation: A flow cytometer gives signals particle by particle.

For experiment [5], the system named is A2780/T cells. As to the kind of experiment: Apoptosis by Annexin-V/PI double staining. Type of experiment: cell-based, human. Conditions: 7.53 μM tangeretin or 0.94 μM PTX alone. On the procedure:
After treatment, 1×10^6 cells were collected, washed and suspended in 100 μl of binding buffer (10 mM N-2-hydroxyethylpiperazine-N,-2-ethanesulfonic acid/NaOH, 140 mM NaCl, 2.5 mM CaCl2, pH 7.4). Apoptotic cells were identified by double supravital staining with 5 μl recombinant FITC (fluorescein isothiocyanate)-conjugated Annexin-V and 5 μl PI (50 μg/ml). The cells were stained for […] at room temperature in the dark, and analyzed by fluorescence-activated cell sorting cater-plus flow cytometry. Data acquisition and analysis were performed in BD FACS Aria with FlowJo software.

In experiment [6] the test system is A2780/T cells. As to the kind of experiment: Cell cycle analysis by flow cytometry in A2780/T. Type of experiment: cell-based, human. To be noted: 48 h. On the procedure:
as §1

The test system of experiment [7] is p53. As to the kind of experiment: Western blot of p53 expression. It is filed as cell-based, human. Conditions: PTX in combination with tangeretin. On the procedure:
The total cellular samples were harvested and rinsed twice with ice-cold PBS buffer. Cell extracts were lysed in RIPA buffer (50 mM Tris (pH 7.4), 150 mM NaCl, 1% Triton X-100, 1% sodium deoxycholate, 0.1% SDS, sodium orthovanadate, sodium fluoride and EDTA) containing protease inhibitor cocktails (Roche Life Science, USA). Protein concentration was determined using the BCA protein assay kit. Equal amounts of cell lysates were resolved by SDS-PAGE and subsequently electrophoretically transferred onto PVDF membranes (Millipore, Darmstadt, Germany). After blocking in tris-buffered saline containing 0.1% of Tween20 (TBST) with 5% (w/v) skim milk (Nestle Carnation, New Zealand) for 2 h at room temperature, the membranes were incubated with primary and secondary antibodies and subsequently visualized with an enhanced chemiluminescence detection kit (Thermo Scientific™ SuperSignal™ West Pico Chemiluminescent Substrate, USA). β-Actin was used as the loading control for the experimental data analysis.

For experiment [8], the system named is A2780/T cells. Kind of experiment: Intracellular accumulation of DOX and Flutax-2 in A2780/T. Conditions: 8 h, 7.53 μM tangeretin or 20 μM QND. It is filed as cell-based, human. On the procedure:
cells (5×10^6) were cultured on the cover glass (ISO LAB 20×20 mm). […] After treatment, cells were fixed in 4 wt % formaldehyde (Sigma-Aldrich). Nuclear DNA was stained with 1 μg/mL blue-fluorescent DAPI (1 mg/mL in H2O stock solution; Invitrogen D1306). One drop of fluorescent preservation solution (fluorsave reagent, CALBIOCHEM) was added before observation. Imaging was carried out for comparing the intracellular accumulation of DOX and flutax-2 with a Fluorescence Microscopy (Leica DM2500, Leica, Germany). […] Cells were detached, re-suspended in 500 μl of PBS after washed twice with cold PBS, and analyzed by flow cytometry (BD FACS Aria, BD Biosciences, San Jose, Calif.). Excitation and emission wavelengths (nm) used for DOX and flutax-2 were as follows: 480 to 585; and 496 to 524.

The mark [9] stands for this setting: A549, 48 h, A549/T, 48 h, drug alone, read-out: IC50 ± SD.
[10] abbreviates: A549, A549/T, +7.53 μM TG, read-out: IC50 ± SD.
The mark [11] stands for this setting: A549, A549/T, +0.84 μM TG, read-out: IC50 ± SD.
[12] abbreviates: A549, A549/T, +5.21 μM TG, read-out: IC50 ± SD.
The mark [13] stands for this setting: 0.94 μM PTX with 7.53 μM tangeretin.
[14] abbreviates: 0.94 μM PTX, absence of tangeretin.

In the case of `O=c1[nH]cc(F)c(=O)[nH]1` [5-Fluorouracil, 5-fluorouracil], the fold reversal in experiment [1] (A549/T, +0.83 μM TG) is given as 1.34; in experiment [1] (A549/T, +2.51 μM TG) it was 2.12; in experiment [1] (A549/T, +7.53 μM TG) it was 6.05; in experiment [1] (A549/T, drug alone), 1.00; in experiment [2] (+0.83 μM TG), 1.19; in experiment [2] (+2.51 μM TG), 2.12. Moreover, the fold reversal in experiment [2] (+7.53 μM TG) worked out at 6.31; in experiment [2] (drug alone), 1.00. Further, the IC50 stood at 142 ± 23.1 µM in experiment [1] (setting [9]); 106 ± 8.63 µM in experiment [1] (A549, A549/T, +0.83 μM TG, read-out: IC50 ± SD); 67 ± 5.44 µM in experiment [1] (A549, A549/T, +2.51 μM TG, read-out: IC50 ± SD); 23.8 ± 1.93 µM in experiment [1] (setting [10]); 179 ± 29 µM in experiment [2] (48 h, drug alone); 152 ± 36.7 µM in experiment [2] (+0.83 μM TG). For the same molecule, the IC50 in experiment [2] (+2.51 μM TG) turned out to be 84.3 ± 6.56 µM; in experiment [2] (+7.53 μM TG), 28.4 ± 4.6 µM.
As for `COc1cccc2c1C(=O)c1c(O)c3c(c(O)c1C2=O)C[C@@](O)(C(C)=O)C[C@@H]3O[C@H]1C[C@H](N)[C@H](O)[C@H](C)O1` [Daunorubicin, daunorubicin], the fold reversal in experiment [1] (A549/T, +0.84 μM TG) stood at 1.41; in experiment [1] (A549/T, +5.21 μM TG), 2.25; in experiment [1] (A549/T, +7.53 μM TG), 6.36; in experiment [1] (A549/T, drug alone), 1.00; in experiment [2] (+0.84 μM TG), 1.34; in experiment [2] (+5.21 μM TG) it was 2.25. Further, the figures for the fold reversal in experiment [2] (+7.53 μM TG) and in experiment [2] (drug alone) were 8.03 and 1.00, respectively. Further, the IC50 in experiment [1] (A549, 48 h, read-out: IC50 ± SD, A549/T, 48 h, drug alone) turned out to be 6.7 ± 0.54 µM; in experiment [1] (A549, read-out: IC50 ± SD, A549/T, +0.84 μM TG) it was 4.74 ± 0.38 µM; in experiment [1] (A549, read-out: IC50 ± SD, A549/T, +5.21 μM TG) it was 2.99 ± 0.24 µM; in experiment [1] (A549, read-out: IC50 ± SD, A549/T, +7.53 μM TG) it was 1.06 ± 0.08 µM; in experiment [2] (48 h, drug alone), 7.51 ± 0.61 µM; in experiment [2] (+0.84 μM TG), 5.66 ± 0.92 µM. The IC50 in experiment [2] (+5.21 μM TG) is 3.4 ± 0.82 µM; in experiment [2] (+7.53 μM TG), 0.96 ± 0.23 µM.
As for `CC(=O)O[C@@]12CO[C@@H]1C[C@H](O)[C@@]1(C)C(=O)[C@H](O)C3=C(C)[C@@H](OC(=O)[C@H](O)[C@@H](NC(=O)OC(C)(C)C)c4ccccc4)C[C@@](O)([C@@H](OC(=O)c4ccccc4)[C@H]21)C3(C)C` [Docetaxel, docetaxel], the fold reversal is recorded as 1.58 in experiment [1] (A549/T, +0.84 μM TG); 3.82 in experiment [1] (A549/T, +5.21 μM TG); 12.07 in experiment [1] (A549/T, +7.53 μM TG); 1.00 in experiment [1] (A549/T, drug alone); 1.99 in experiment [2] (+0.84 μM TG); 7.95 in experiment [2] (+5.21 μM TG). For the same molecule, the fold reversal in experiment [2] (+7.53 μM TG) was 33.66; in experiment [2] (drug alone), 1.00. Moreover, the IC50 was 12.7 ± 2.06 µM in experiment [1] (setting [9]); 7.8 ± 1.29 µM in experiment [1] (setting [11]); 3.36 ± 0.28 µM in experiment [1] (setting [12]); 1.06 ± 0.08 µM in experiment [1] (setting [10]); 28.4 ± 4.59 µM in experiment [2] (48 h, drug alone); 14.2 ± 2.31 µM in experiment [2] (+0.84 μM TG). For the same molecule, the IC50 in experiment [2] (+5.21 μM TG) was 3.57 ± 0.58 µM; in experiment [2] (+7.53 μM TG), 0.84 ± 0.07 µM.
Regarding `CC(=O)O[C@H]1C(=O)[C@@]2(C)[C@H]([C@H](OC(=O)c3ccccc3)[C@]3(O)C[C@H](OC(=O)[C@H](O)[C@@H](NC(=O)c4ccccc4)c4ccccc4)C(C)=C1C3(C)C)[C@]1(OC(C)=O)CO[C@@H]1C[C@@H]2O` [Paclitaxel, paclitaxel], the EC50 in experiment [3] (Homo sapiens, CalcuSyn simulation, alone or in combination, read-out: Dose PTX at Fa 0.5 (ED50)) was 3.61 µM. Further, the “decrease for the ED50 dose of PTX” value in experiment [3] (combination with tangeretin versus PTX alone) is given as 18 fold. Also, the G1 phase content was determined as 30.95% in experiment [4] (24 hours), 14.13% in experiment [4] (48 hours) and 13.07% in experiment [4] (72 hours). Moreover, the figures for the G2-M content in experiment [4] (24 hours), in experiment [4] (48 hours) and in experiment [4] (72 hours) were 52.63%, 62.33% and 74.20%, respectively. In addition, the “apoptosis induction, single treatment” value in experiment [5] is on record as “did not show apoptosis induction”. Moreover, the fold reversal is reported as 2.67 in experiment [1] (A549/T, +0.84 μM TG); 9.52 in experiment [1] (A549/T, +2.51 μM TG); 9.52 in experiment [1] (A549/T, +5.21 μM TG); 80.05 in experiment [1] (A549/T, +7.53 μM TG); 1.00 in experiment [1] (A549/T, drug alone); 1.59 in experiment [2] (+0.84 μM TG). Moreover, the figures for the fold reversal in experiment [2] (+5.21 μM TG), in experiment [2] (+7.53 μM TG) and in experiment [2] (drug alone) were 5.66, 18.88 and 1.00, respectively. The IC50 in experiment [1] (setting [9]) was 2.53 ± 0.41 µM; in experiment [1] (setting [11]), 1.03 ± 0.33 µM; in experiment [1] (setting [12]), 0.27 ± 0.02 µM; in experiment [1] (setting [10]), 0.03 ± 0.01 µM; in experiment [2] (48 h, drug alone), 2.51 µM; in experiment [2] (+0.84 μM TG), 1.58 ± 0.04 µM. The IC50 came to 0.45 ± 0.07 µM in experiment [2] (+5.21 μM TG) and 0.14 ± 0.02 µM in experiment [2] (+7.53 μM TG). Further, the “mean IC50 in A2780/T greater than that of A2780 (degree of resistance)” value in experiment [2] (A2780/T versus parental A2780) was found to be 501 fold. For the same molecule, the results for the G1 phase cells in experiment [6] (setting [13]) and in experiment [6] (setting [14]) were 13.87% and 68.30%, respectively. Also, the values for the G2 phase cells in experiment [6] (setting [13]) and in experiment [6] (setting [14]) were 72.37% and 18.87%, respectively. Besides, the “accumulation of p53” value in experiment [7] is given as “accumulation of p53”.
Take `C=C[C@H]1C[N@@]2CC[C@H]1C[C@@H]2[C@@H](O)c1ccnc2ccc(OC)cc12` [QND, quinidine]: in experiment [8], the “intracellular accumulations of DOX and Flutax-2” value is “higher than that of untreated A2780/T”.
